System: 282377-053-R-J1-PDC complex spheroids, viability
Assay: Anticancer human tumor 282377-053-R-J1-PDC patient-derived colon adenocarcinoma cell line growth inhibition [GQUAD]
Details: for IC50: curve of first compound; for viability, T/C: stronger effect = lower value; active = viability on the fitted dose curve at most 10% of control; inactive = the rest
Procedure, shortened: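 Tumor cells were grown as complex spheroids with HUVEC endothelial cells and mesenchymal stem cells as stroma. G-quadruplex stabilizers were combined with targeted agents over half-log dilutions from near the clinical Cmax, or from 10 microM.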

[1] = second compound 0.0316 µM, first compound 0.0316 µM
[2] = second compound 0.0316 µM, first compound 0.1 µM
[3] = second compound 0.0316 µM, first compound 0.316 µM
[4] = second compound 0.0316 µM, first compound 1 µM
[5] = second compound 0.0316 µM, first compound 3.16 µM
[6] = second compound 0.0316 µM, first compound 10 µM
[7] = second compound 0.1 µM, first compound 0.0316 µM
[8] = second compound 0.1 µM, first compound 0.1 µM
[9] = second compound 0.1 µM, first compound 0.316 µM
[10] = second compound 0.1 µM, first compound 1 µM
[11] = second compound 0.1 µM, first compound 3.16 µM
[12] = second compound 0.1 µM, first compound 10 µM
[13] = second compound 0.316 µM, first compound 0.0316 µM
[14] = second compound 0.316 µM, first compound 0.1 µM
[15] = second compound 0.316 µM, first compound 0.316 µM
[16] = second compound 0.316 µM, first compound 1 µM
[17] = second compound 0.316 µM, first compound 3.16 µM
[18] = second compound 0.316 µM, first compound 10 µM
[19] = second compound 1 µM, first compound 0.0316 µM
[20] = second compound 1 µM, first compound 0.1 µM
[21] = second compound 1 µM, first compound 0.316 µM
[22] = second compound 1 µM, first compound 1 µM
[23] = second compound 1 µM, first compound 3.16 µM
[24] = second compound 1 µM, first compound 10 µM
[25] = second compound 3.16 µM, first compound 0.0316 µM
[26] = second compound 3.16 µM, first compound 0.1 µM
[27] = second compound 3.16 µM, first compound 0.316 µM
[28] = second compound 3.16 µM, first compound 1 µM
[29] = second compound 3.16 µM, first compound 3.16 µM
[30] = second compound 3.16 µM, first compound 10 µM
[31] = second compound 10 µM, first compound 0.0316 µM
[32] = second compound 10 µM, first compound 0.1 µM
[33] = second compound 10 µM, first compound 0.316 µM
[34] = second compound 10 µM, first compound 1 µM
[35] = second compound 10 µM, first compound 3.16 µM
[36] = second compound 10 µM, first compound 10 µM
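Also: spheroids exposed to compounds for 7 days before readout.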
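For viability, T/C in this document: percent of vehicle DMSO control viability with 100% = untreated-like growth.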

COc1cc(C2c3cc4c(cc3C(OC3OC5COC(C)OC5C(O)C3O)C3COC(=O)C23)OCO4)cc(OC)c1O (centres undefined) + CN(C)c1ccc(Nc2c3ccc(NC(=O)CCN4CCCC4)cc3nc3cc(NC(=O)CCN4CCCC4)ccc23)cc1
inactive: viability, T/C [1] 94.2% | viability, T/C [2] 94.2% | viability, T/C [3] 86.6% | viability, T/C [4] 117% | viability, T/C [5] 86.7% | viability, T/C [6] 68.2% | viability, T/C [7] 105% | viability, T/C [8] 85.4% | viability, T/C [9] 101% | viability, T/C [10] 86% | viability, T/C [11] 75% | viability, T/C [12] 67.6% | viability, T/C [13] 108% | viability, T/C [14] 93% | viability, T/C [15] 99% | viability, T/C [16] 95.6% | viability, T/C [17] 97.7% | viability, T/C [18] 66.4% | viability, T/C [19] 97.4% | viability, T/C [20] 67.8% | viability, T/C [21] 114% | viability, T/C [22] 105% | viability, T/C [23] 89.2% | viability, T/C [24] 60.8% | viability, T/C [25] 94.7% | viability, T/C [26] 90% | viability, T/C [27] 120% | viability, T/C [28] 106% | viability, T/C [29] 86% | viability, T/C [30] 66.8% | viability, T/C [31] 90.3% | viability, T/C [32] 90.4% | viability, T/C [33] 105% | viability, T/C [34] 105% | viability, T/C [35] 90.4% | viability, T/C [36] 64.3%
> 10 µM: IC50 (second compound 0.0316 µM) | IC50 (second compound 0.1 µM) | IC50 (second compound 0.316 µM) | IC50 (second compound 1 µM) | IC50 (second compound 3.16 µM) | IC50 (second compound 10 µM)

CC1COCCN1c1cc(C2(S(C)(=N)=O)CC2)nc(-c2ccnc3[nH]ccc23)n1 (centres undefined) + Cc1[nH]c2ccc(F)cc2c1-c1nc2c3cccnc3c3ncccc3c2[nH]1
8.74 µM: IC50 (second compound 0.1 µM)
< 0.0316 µM: IC50 (second compound 10 µM)
4.98 µM: IC50 (second compound 1 µM)
active: viability, T/C [36] 6.17%
> 10 µM: IC50 (second compound 0.0316 µM) | IC50 (second compound 0.316 µM)
inactive: viability, T/C [1] 85.5% | viability, T/C [2] 83.7% | viability, T/C [3] 101% | viability, T/C [4] 81.8% | viability, T/C [5] 78.5% | viability, T/C [6] 55.6% | viability, T/C [7] 90% | viability, T/C [8] 91.8% | viability, T/C [9] 82% | viability, T/C [10] 94.8% | viability, T/C [11] 61.8% | viability, T/C [12] 48.5% | viability, T/C [13] 94.5% | viability, T/C [14] 97.3% | viability, T/C [15] 65.4% | viability, T/C [16] 69.5% | viability, T/C [17] 84.5% | viability, T/C [18] 49.6% | viability, T/C [19] 100% | viability, T/C [20] 81.4% | viability, T/C [21] 87.3% | viability, T/C [22] 86.2% | viability, T/C [23] 57.7% | viability, T/C [24] 38.1% | viability, T/C [25] 65.2% | viability, T/C [26] 71% | viability, T/C [27] 56.2% | viability, T/C [28] 47.8% | viability, T/C [29] 31.9% | viability, T/C [30] 10.4% | viability, T/C [31] 41.6% | viability, T/C [32] 41% | viability, T/C [33] 49.8% | viability, T/C [34] 29.5% | viability, T/C [35] 18.1%
0.822 µM: IC50 (second compound 3.16 µM)
